According to patent US20020028807A1, “Non-nucleoside reverse transcriptase inhibitors” (priority 2000, published 2002):

Key:
[1] = biological target: T1, HIV-1 RT Y188L (Human immunodeficiency virus type 1 group M subtype B, UniProt P03366, Y787L); experiment: Reverse transcriptase (RT) assay, Y188L mutant; format: biochemical
T1 construct: an HIV RT clone pKRT2 containing only the RT p66 gene regulated by the lac operon/trc promoter; made in house; host or cells: E. coli JM109, vector pKK233-2
From the text: (§1) Among the enzymes for which Human Immunodeficiency Virus (HIV-1) encodes is a reverse transcriptase (1), so-named because it transcribes a DNA copy from an RNA template. This activity can be quantitatively measured in a cell-free enzyme assay and is based upon the observation that reverse transcriptase is able to use a synthetic template poly r(C) primed with a biotinylated oligo d(G) to transcribe a radio-labelled DNA strand utilising 3H-dGTP as a substrate. The assay described below utilises the wild-type enzyme (which is the predominant form of the enzyme observed in patients infected with HIV-1) and can also be used with mutant RT enzymes (for example, Y181C, prepared by site-directed mutagenesis in which the tyrosine residue at codon 181 has been replaced by a cysteine residue) in analogous assay conditions. This assay allows compounds to be evaluated for their effectiveness at inhibiting the mutant enzymes.
(§2) Some HIV-1 IIIB clone BH10 RT mutants were provided by Dr. C.-K. Shih (Boehringer Ingelheim Pharmaceutials Inc., U.S.A.) in the vector pKK233-2 (Pharmacia). Briefly an HIV RT clone pKRT2 containing only the RT p66 gene regulated by the lac operon/trc promoter was obtained from Dr. W. Summers (Yale University) (2). A variety of specific amino acid substitutions were introduced into the wild-type RT gene by site-directed mutagenesis. RT clones were subcloned into the pKK233-2 bacterial expression vector. Clones provided included wild-type, Val106Ala, Tyr181Cys, Tyr188Cys, Tyr188Leu, Gly190Ala and Pro236Leu. Others were made in-house by site-directed mutagenesis of the pKK233-2 RT clones including Lys103Asn, Lys103Asn/Tyr181Cys, Lys103Asn/Leu100Ile, Lys103Asn/Pro225His, and Lys103Asn/Val108Ile.
(§3) Purification of recombinant reverse transcriptase was performed using a combination of methods previously described (3). A single colony from a fresh plate of transformed JM109 cells was used to initiate growth of a pre-culture grown o/n at 37° C. Two liters of growth medium were inoculated with this pre-culture. At OD600˜1.5 (5-6 h at 37° C.), RT gene expression was induced with IPTG (1 mM final), and the fermentation was continued for a few more hours at 37° C. After centrifugation, supernatants were discarded while cell pellets were pooled and stored at −80° C. until purification. Cells were thawed at 4° C. overnight and suspended in lysis buffer (MES 50 mM pH 6, EDTA 1 mM, 10% v/v glyerol, 0.02% w/v OBG, 0.02% w/v sodium azide). Lysozyme was added and the mixture was incubated on ice for 40 minutes. After homogenization using a bounce in presence of lysozyme and sonication, the cells were centrifuged for 30 minutes. Supernatant (S1) was saved and stored at 4° C. The centrifuged pellet was resuspended in extraction buffer (MES 50 mM pH 6, KPO4 50 mM pH 6, KCl 100 mM, 10% v/v glycerol, 0.02% w/v OBG, 0.02% w/v sodium axide) and stirred for 30 minutes at 4° C. This second mixture was centrifuged again and the supernatant (S2) was saved. The above procedure was repeated 2 more times saving supernatants S3 and S4 and one last extraction was performed overnight (S5). Polymin P (0.005% final) was added to the combined supernatants to remove nucleic acids. This solution was stirred for 75 minutes at 4° C. and centrifuged for 1 h. The supernatant (SS1) was precipitated on ice with 20% w/v ammonium sulfate and stirred for 1 h at 4° C. The mixture was then centrifuged and the resulting supernatant (SS2) was precipitated with additional 40% w/v ammonium sulfate (60% total), stirred for 1 h and centrifuged again. The final pellet (P1) was stored overnight at 4° C. before undergoing purification the following day. All steps of the purification were performed at 4° C. unless otherwise stated.
(§4) Pellet (P1) was resuspended into MES 50 mM pH 6, KPO4 10 mM pH 6, KCl 100 mM, 10% v/v glycerol, 0.02% w/v OBG, 0.02% w/v sodium azide. The suspension was dialysis against the same buffer overnight using 12-14 kD MWCO dialysis tubing. […]

[2] = biological target: T2, HIV-1 RT wild-type (WT) (Human immunodeficiency virus type 1 group M subtype B, UniProt P03366); experiment: Reverse transcriptase (RT) assay, wild-type enzyme; format: biochemical
T2 construct: an HIV RT clone pKRT2 containing only the RT p66 gene regulated by the lac operon/trc promoter; made in house; host or cells: E. coli JM109, vector pKK233-2
From the text: as §1, §2, §3, §4

[3] = biological target: T3, HIV-1 RT K103N (Human immunodeficiency virus type 1 group M subtype B, UniProt P03366, K702N); experiment: Reverse transcriptase (RT) assay, K103N mutant; format: biochemical
T3 construct: an HIV RT clone pKRT2 containing only the RT p66 gene regulated by the lac operon/trc promoter; made in house; host or cells: E. coli JM109, vector pKK233-2
From the text: as §1, §2, §3, §4

[4] = biological target: T4, HIV-1 RT K103N/Y181C (Human immunodeficiency virus type 1 group M subtype B, UniProt P03366, K702N/Y780C); experiment: Reverse transcriptase (RT) assay, K103N/Y181C mutant; format: biochemical
T4 construct: an HIV RT clone pKRT2 containing only the RT p66 gene regulated by the lac operon/trc promoter; made in house; host or cells: E. coli JM109, vector pKK233-2
From the text: as §1, §2, §3, §4

[5] = biological target: T5, HIV-1 RT K103N/L100I (Human immunodeficiency virus type 1 group M subtype B, UniProt P03366, K702N/L699I); experiment: Reverse transcriptase (RT) assay, K103N/L100I mutant; format: biochemical
T5 construct: an HIV RT clone pKRT2 containing only the RT p66 gene regulated by the lac operon/trc promoter; made in house; host or cells: E. coli JM109, vector pKK233-2
From the text: as §1, §2, §3, §4

[6] = biological target: T6, HIV-1 RT V106A (Human immunodeficiency virus type 1 group M subtype B, UniProt P03366, V705A); experiment: Reverse transcriptase (RT) assay, V106A mutant; format: biochemical
T6 construct: an HIV RT clone pKRT2 containing only the RT p66 gene regulated by the lac operon/trc promoter; made in house; host or cells: E. coli JM109, vector pKK233-2
From the text: as §1, §2, §3, §4

[7] = biological target: T7, HIV-1 RT K103N/V108I (Human immunodeficiency virus type 1 group M subtype B, UniProt P03366, K702N/V707I); experiment: Reverse transcriptase (RT) assay, K103N/V108I mutant; format: biochemical
T7 construct: an HIV RT clone pKRT2 containing only the RT p66 gene regulated by the lac operon/trc promoter; made in house; host or cells: E. coli JM109, vector pKK233-2
From the text: as §1, §2, §3, §4

[8] = biological target: T8, HIV-1 RT K103N/P225H (Human immunodeficiency virus type 1 group M subtype B, UniProt P03366, K702N/P824H); experiment: Reverse transcriptase (RT) assay, K103N/P225H mutant; format: biochemical
T8 construct: an HIV RT clone pKRT2 containing only the RT p66 gene regulated by the lac operon/trc promoter; made in house; host or cells: E. coli JM109, vector pKK233-2
From the text: as §1, §2, §3, §4

[9] = biological target: T9, HIV-1 RT Y181C (Human immunodeficiency virus type 1 group M subtype B, UniProt P03366, Y780C); experiment: Reverse transcriptase (RT) assay, Y181C mutant; format: biochemical
T9 construct: an HIV RT clone pKRT2 containing only the RT p66 gene regulated by the lac operon/trc promoter; made in house; host or cells: E. coli JM109, vector pKK233-2
From the text: as §1, §2, §3, §4

[10] = test system: HIV coding for wild-type reverse transcriptase (WT RT); experiment: ELISA (p24) assay of HIV replication in C8166 cell culture, wild-type RT virus; format: cell-based, HIV-1; conditions: Human immunodeficiency virus 1, C8166, 72 h, read-out: EC50 WT RT
Experimental: (§5) Compounds of the invention were tested for their ability to inhibit HIV replication in cell culture in a 96-well plate assay. Complete RPMI 1640, consisting of RPMI 1640+10% fetal bovine serum, 10 μg/ml gentamycin and 10 μM β-mercaptoethanol was used for dilution of the compound as well as cell growth medium. The T lymphocyte cell line C8166 was infected at a multiplicity of infection of 0.001 with viruses coding for wild-type and mutant reverse transcriptase. Cells were then incubated for three days in the presence of serial dilutions of the compounds of the invention. The supernatant was pooled from eight replica wells and the concentration of extracellular p24 was determined using a commercially available HIV-1 p24 antigen assay kit (Beckman-Coulter®). The level of inhibition (% inhibition) was calculated with the following equation: [formula]

[11] = biological target: T10, HIV-1 RT G190A (Human immunodeficiency virus type 1 group M subtype B, UniProt P03366, G789A); experiment: Reverse transcriptase (RT) assay, G190A mutant; format: biochemical
T10 construct: an HIV RT clone pKRT2 containing only the RT p66 gene regulated by the lac operon/trc promoter; made in house; host or cells: E. coli JM109, vector pKK233-2
From the text: as §1, §2, §3, §4

[12] = biological target: T11, HIV-1 RT Y188C (Human immunodeficiency virus type 1 group M subtype B, UniProt P03366, Y787C); experiment: Reverse transcriptase (RT) assay, Y188C mutant; format: biochemical
T11 construct: an HIV RT clone pKRT2 containing only the RT p66 gene regulated by the lac operon/trc promoter; made in house; host or cells: E. coli JM109, vector pKK233-2
From the text: as §1, §2, §3, §4

[13] = test system: HIV coding for mutant reverse transcriptase K103N/Y181C; experiment: ELISA (p24) assay of HIV replication in C8166 cell culture, K103N/Y181C virus; format: cell-based, HIV-1; conditions: Human immunodeficiency virus 1, C8166, 72 h, read-out: EC50 K103N/Y181C
Experimental: as §5

| SMILES | IC50 [1] | IC50 [2] | IC50 [3] | IC50 [4] | IC50 [5] | IC50 [6] | IC50 [7] | IC50 [8] | IC50 [9] | EC50 [10] | IC50 [11] | IC50 [12] | EC50 [13] |
| --- | --- | --- | --- | --- | --- | --- | --- | --- | --- | --- | --- | --- | --- |
| CCN1c2ncc(CCOc3ccnc4ccccc34)cc2C(=O)N(C)c2ccc(F)nc21 [compound 4, 5,11-Dihydro-11-ethyl-2-fluoro-5-methyl-8-{2-(4-quinolinyloxy)ethyl}-6H-dipyrido[3,2-b:2′,3′-e][1,4]diazepin-6-one] | 520 nM | 11 nM | 22.5 nM | 52 nM | 108 nM | 206 nM | 32 nM | 27 nM | 26 nM | 0.98 nM | – | – | – |
| CCN1c2ncc(CCOc3ccnc4ccccc34)cc2C(=O)Nc2c(C)ccnc21 [compound 8, 5,11-Dihydro-11-ethyl-4-methyl-8-{2-(4-quinolinyloxy)ethyl}-6H-dipyrido[3,2-b:2′,3′-e][1,4]diazepin-6-one] | 7510 nM | 10 nM | 37 nM | 301 nM | 135 nM | 190 nM | 63 nM | 67 nM | 43 nM | 0.93 nM | – | – | – |
| CCN1c2ncc(CCOc3ccnc4ccccc34)cc2C(=O)Nc2c(C)cc(F)nc21 [compound 7, 5,11-Dihydro-11-ethyl-2-fluoro-4-methyl-8-{2-(4-quinolinyloxy)ethyl}-6H-dipyrido[3,2-b:2′,3′-e][1,4]diazepin-6-one] | 4320 nM | 9.8 nM | 26 nM | 199 nM | 98 nM | 74 nM | 45 nM | 46 nM | 38 nM | 1.1 nM | – | – | – |
| CCN1c2ncc(CCOc3ccnc4ccccc34)cc2C(=O)N(C)c2cccnc21 [compound 24, 5,11-Dihydro-11-ethyl-5-methyl-8-{2-(4-quinolinyloxy)ethyl}-6H-dipyrido[3,2-b:2′,3′-e][1,4]diazepin-6-one] | 627 nM | 5.6 nM | – | 70 nM | 169 nM | 344 nM | – | – | – | – | 25 nM | – | – |
| Cc1cc(F)nc2c1NC(=O)c1cc(CCOc3ccnc4ccccc34)cnc1N2C1CC1 [compound 5, 11-(Cyclopropyl)-5,11-dihydro-2-fluoro-4-methyl-8-{2-(4-quinolinyloxy)-ethyl}-6H-dipyrido[3,2-b:2′,3′-e][1,4]diazepin-6-one] | 2540 nM | 19 nM | 37.5 nM | 536 nM | 98 nM | 61 nM | 38 nM | 38 nM | 76 nM | 0.83 nM | – | – | – |
| CCN1C(=O)c2cc(CCOc3ccnc4ccccc34)cnc2N(CC)c2ncccc21 [compound 26, 5,11-Dihydro-5,11-diethyl-8-{2-(4-quinolinyloxy)ethyl}-6H-dipyrido[3,2-b:2′,3′-e][1,4]diazepin-6-one] | 5200 nM | 8.9 nM | 40 nM | 200 nM | – | 1750 nM | 443 nM | 85 nM | 51 nM | 2.2 nM | – | 147 nM | – |
| CCN1c2ncc(CCOc3cccc4c3ccc[n+]4[O-])cc2C(=O)N(C)c2ccc(F)nc21 [compound 18, 5,11-Dihydro-11-ethyl-2-fluoro-5-methyl-8-{2-{(1-oxido-5-quinolinyl)-oxy}ethyl}-6H-dipyrido[3,2-b:2′,3′-e][1,4]diazepin-6-one] | 1170 nM | 11 nM | 37 nM | 146 nM | 158 nM | 737 nM | 96 nM | 20 nM | 41 nM | 0.34 nM | – | – | 9.5 nM |
